Experimental data from patent publication US6096930A, “Herbicidal cyclohexane-1,3-dione derivatives and their preparation process” (Korea Research Institute of Chemical Technology, priority 1994, dated 2000).

Experiments:
Assay type in all cases: in vivo
[1] = test system: ZEAMX; test: Herbicidal activity, upland test, pre-emergence
Method: (§1) The sterilized sandy loam soil is filled in test pot having a surface area of 348 cm^2 for upland test conditions or 115 cm^2 for paddy test species were planted in furrows.
(§2) For the pre-emergent tests, were sprayed on the soil one day after planting test compound in a mixture of acetone and 7 ml of the water containing up to 0.1% Tween 20.
(§3) The concentration of the test compound in solution was varied to give a range of application rates, generally 4.0 kg/ha and submultiples thereof. The pots were placed in a greenhouse and watered regularly at the soil surface for 21 days and herbicidal effects were visually rated by a percent control.
(§4) The herbicidal activity data were taken visually by percent control, wherein 0 signifies no herbicidal effect and 100 signifies complete kill.

[2] = test system: AESIN; test: Herbicidal activity, upland test, pre-emergence
Method: as §1, §2, §3, §4

[3] = test system: GLXMX; test: Herbicidal activity, upland test, pre-emergence
Method: as §1, §2, §3, §4

[4] = test system: PANDI; test: Herbicidal activity, upland test, pre-emergence
Method: as §1, §2, §3, §4

[5] = test system: ECHOR; test: Herbicidal activity, upland test, pre-emergence
Method: as §1, §2, §3, §4

[6] = test system: BROJA; test: Herbicidal activity, upland test, pre-emergence
Method: as §1, §2, §3, §4

[7] = test system: DIGSA; test: Herbicidal activity, upland test, pre-emergence
Method: as §1, §2, §3, §4

[8] = test system: GOSHI; test: Herbicidal activity, upland test, pre-emergence
Method: as §1, §2, §3, §4

[9] = test system: ORYSA; test: Herbicidal activity, upland test, pre-emergence
Method: as §1, §2, §3, §4

[10] = test system: TRZAW; test: Herbicidal activity, upland test, pre-emergence
Method: as §1, §2, §3, §4

[11] = test system: SOLNI; test: Herbicidal activity, upland test, pre-emergence
Method: as §1, §2, §3, §4

[12] = test system: ABUTH; test: Herbicidal activity, upland test, pre-emergence
Method: as §1, §2, §3, §4

[13] = test system: SORBI; test: Herbicidal activity, upland test, pre-emergence
Method: as §1, §2, §3, §4

[14] = test system: ZEAMX; test: Herbicidal activity, upland test, post-emergence
Excerpt: as §1
(§5) The pots for the post-emergent tests were placed in a greenhouse and watered for 9~14 days, then the foliage of test plants was sprayed with a solution of the test compound in a mixture of acetone and water containing a small amount of Tween 20.
(§6) After spraying the plants were kept for one day, then watered regularly for 14 to 21 days, and herbicidal activity data were recorded.
as §4

[15] = test system: AESIN; test: Herbicidal activity, upland test, post-emergence
Excerpt: as §1, §5, §6, §4

[16] = test system: GLXMX; test: Herbicidal activity, upland test, post-emergence
Excerpt: as §1, §5, §6, §4

[17] = test system: PANDI; test: Herbicidal activity, upland test, post-emergence
Excerpt: as §1, §5, §6, §4

[18] = test system: ECHOR; test: Herbicidal activity, upland test, post-emergence
Excerpt: as §1, §5, §6, §4

[19] = test system: BROJA; test: Herbicidal activity, upland test, post-emergence
Excerpt: as §1, §5, §6, §4

[20] = test system: DIGSA; test: Herbicidal activity, upland test, post-emergence
Excerpt: as §1, §5, §6, §4

[21] = test system: GOSHI; test: Herbicidal activity, upland test, post-emergence
Excerpt: as §1, §5, §6, §4

[22] = test system: ORYSA; test: Herbicidal activity, upland test, post-emergence
Excerpt: as §1, §5, §6, §4

[23] = test system: TRZAW; test: Herbicidal activity, upland test, post-emergence
Excerpt: as §1, §5, §6, §4

[24] = test system: SOLNI; test: Herbicidal activity, upland test, post-emergence
Excerpt: as §1, §5, §6, §4

[25] = test system: ABUTH; test: Herbicidal activity, upland test, post-emergence
Excerpt: as §1, §5, §6, §4

[26] = test system: SORBI; test: Herbicidal activity, upland test, post-emergence
Excerpt: as §1, §5, §6, §4

CCCC(=NOC)C1=C(O)CC(c2c(C)c(C)c3c(c2C)CC(C)(C)C3)CC1=O (centres unmarked) [Compound 6]
Herbicidal activity, ZEAMX ([1]; 0.016 kg/ha): 0 % inhibition | Herbicidal activity, ZEAMX ([1]; 0.063 kg/ha): 0 % inhibition | Herbicidal activity, ZEAMX ([1]; 1.000 kg/ha): 40 % inhibition | Herbicidal activity, ZEAMX ([1]; 1.250 kg/ha): 0 % inhibition | Herbicidal activity, AESIN ([2]; 0.016 kg/ha): 0 % inhibition | Herbicidal activity, AESIN ([2]; 0.063 kg/ha): 0 % inhibition | Herbicidal activity, AESIN ([2]; 1.000 kg/ha): 0 % inhibition | Herbicidal activity, AESIN ([2]; 1.250 kg/ha): 0 % inhibition | Herbicidal activity, GLXMX ([3]; 0.016 kg/ha): 0 % inhibition | Herbicidal activity, GLXMX ([3]; 0.063 kg/ha): 0 % inhibition | Herbicidal activity, GLXMX ([3]; 1.000 kg/ha): 0 % inhibition | Herbicidal activity, GLXMX ([3]; 1.250 kg/ha): 0 % inhibition | Herbicidal activity, PANDI ([4]; 0.016 kg/ha): 0 % inhibition | Herbicidal activity, PANDI ([4]; 0.063 kg/ha): 80 % inhibition | Herbicidal activity, PANDI ([4]; 1.000 kg/ha): 100 % inhibition | Herbicidal activity, PANDI ([4]; 1.250 kg/ha): 100 % inhibition | Herbicidal activity, ECHOR ([5]; 0.016 kg/ha): 0 % inhibition | Herbicidal activity, ECHOR ([5]; 0.063 kg/ha): 0 % inhibition | Herbicidal activity, ECHOR ([5]; 1.000 kg/ha): 100 % inhibition | Herbicidal activity, ECHOR ([5]; 1.250 kg/ha): 50 % inhibition | Herbicidal activity, BROJA ([6]; 0.016 kg/ha): 0 % inhibition | Herbicidal activity, BROJA ([6]; 0.063 kg/ha): 0 % inhibition | Herbicidal activity, BROJA ([6]; 1.000 kg/ha): 80 % inhibition | Herbicidal activity, BROJA ([6]; 1.250 kg/ha): 40 % inhibition | Herbicidal activity, DIGSA ([7]; 0.016 kg/ha): 0 % inhibition | Herbicidal activity, DIGSA ([7]; 0.063 kg/ha): 0 % inhibition | Herbicidal activity, DIGSA ([7]; 1.000 kg/ha): 100 % inhibition | Herbicidal activity, DIGSA ([7]; 1.250 kg/ha): 60 % inhibition | Herbicidal activity, GOSHI ([8]; 0.016 kg/ha): 0 % inhibition | Herbicidal activity, GOSHI ([8]; 0.063 kg/ha): 0 % inhibition | Herbicidal activity, GOSHI ([8]; 1.000 kg/ha): 0 % inhibition | Herbicidal activity, GOSHI ([8]; 1.250 kg/ha): 0 % inhibition | Herbicidal activity, ORYSA ([9]; 0.016 kg/ha): 0 % inhibition | Herbicidal activity, ORYSA ([9]; 0.063 kg/ha): 30 % inhibition | Herbicidal activity, ORYSA ([9]; 1.000 kg/ha): 80 % inhibition | Herbicidal activity, ORYSA ([9]; 1.250 kg/ha): 30 % inhibition | Herbicidal activity, TRZAW ([10]; 0.016 kg/ha): 0 % inhibition | Herbicidal activity, TRZAW ([10]; 0.063 kg/ha): 0 % inhibition | Herbicidal activity, TRZAW ([10]; 1.000 kg/ha): 60 % inhibition | Herbicidal activity, TRZAW ([10]; 1.250 kg/ha): 20 % inhibition | Herbicidal activity, SOLNI ([11]; 0.016 kg/ha): 0 % inhibition | Herbicidal activity, SOLNI ([11]; 0.063 kg/ha): 0 % inhibition | Herbicidal activity, SOLNI ([11]; 1.000 kg/ha): 0 % inhibition | Herbicidal activity, SOLNI ([11]; 1.250 kg/ha): 0 % inhibition | Herbicidal activity, ABUTH ([12]; 0.016 kg/ha): 0 % inhibition | Herbicidal activity, ABUTH ([12]; 0.063 kg/ha): 0 % inhibition | Herbicidal activity, ABUTH ([12]; 1.000 kg/ha): 0 % inhibition | Herbicidal activity, ABUTH ([12]; 1.250 kg/ha): 0 % inhibition | Herbicidal activity, SORBI ([13]; 0.016 kg/ha): 0 % inhibition | Herbicidal activity, SORBI ([13]; 0.063 kg/ha): 0 % inhibition | Herbicidal activity, SORBI ([13]; 1.000 kg/ha): 30 % inhibition | Herbicidal activity, SORBI ([13]; 1.250 kg/ha): 0 % inhibition | Herbicidal activity, ZEAMX ([14]; 0.016 kg/ha): 0 % inhibition | Herbicidal activity, ZEAMX ([14]; 0.063 kg/ha): 60 % inhibition | Herbicidal activity, ZEAMX ([14]; 1.000 kg/ha): 100 % inhibition | Herbicidal activity, ZEAMX ([14]; 1.250 kg/ha): 100 % inhibition | Herbicidal activity, AESIN ([15]; 0.016 kg/ha): 0 % inhibition | Herbicidal activity, AESIN ([15]; 0.063 kg/ha): 0 % inhibition | Herbicidal activity, AESIN ([15]; 1.000 kg/ha): 20 % inhibition | Herbicidal activity, AESIN ([15]; 1.250 kg/ha): 0 % inhibition | Herbicidal activity, GLXMX ([16]; 0.016 kg/ha): 0 % inhibition | Herbicidal activity, GLXMX ([16]; 0.063 kg/ha): 0 % inhibition | Herbicidal activity, GLXMX ([16]; 1.000 kg/ha): 60 % inhibition | Herbicidal activity, GLXMX ([16]; 1.250 kg/ha): 20 % inhibition | Herbicidal activity, PANDI ([17]; 0.016 kg/ha): 40 % inhibition | Herbicidal activity, PANDI ([17]; 0.063 kg/ha): 100 % inhibition | Herbicidal activity, PANDI ([17]; 1.000 kg/ha): 100 % inhibition | Herbicidal activity, PANDI ([17]; 1.250 kg/ha): 100 % inhibition | Herbicidal activity, ECHOR ([18]; 0.016 kg/ha): 70 % inhibition | Herbicidal activity, ECHOR ([18]; 0.063 kg/ha): 100 % inhibition | Herbicidal activity, ECHOR ([18]; 1.000 kg/ha): 100 % inhibition | Herbicidal activity, ECHOR ([18]; 1.250 kg/ha): 100 % inhibition | Herbicidal activity, BROJA ([19]; 0.016 kg/ha): 0 % inhibition | Herbicidal activity, BROJA ([19]; 0.063 kg/ha): 30 % inhibition | Herbicidal activity, BROJA ([19]; 1.000 kg/ha): 100 % inhibition | Herbicidal activity, BROJA ([19]; 1.250 kg/ha): 70 % inhibition | Herbicidal activity, DIGSA ([20]; 0.016 kg/ha): 60 % inhibition | Herbicidal activity, DIGSA ([20]; 0.063 kg/ha): 100 % inhibition | Herbicidal activity, DIGSA ([20]; 1.000 kg/ha): 100 % inhibition | Herbicidal activity, DIGSA ([20]; 1.250 kg/ha): 100 % inhibition | Herbicidal activity, GOSHI ([21]; 0.016 kg/ha): 0 % inhibition | Herbicidal activity, GOSHI ([21]; 0.063 kg/ha): 30 % inhibition | Herbicidal activity, GOSHI ([21]; 1.000 kg/ha): 50 % inhibition | Herbicidal activity, GOSHI ([21]; 1.250 kg/ha): 40 % inhibition | Herbicidal activity, ORYSA ([22]; 0.016 kg/ha): 0 % inhibition | Herbicidal activity, ORYSA ([22]; 0.063 kg/ha): 30 % inhibition | Herbicidal activity, ORYSA ([22]; 1.000 kg/ha): 100 % inhibition | Herbicidal activity, ORYSA ([22]; 1.250 kg/ha): 70 % inhibition | Herbicidal activity, TRZAW ([23]; 0.016 kg/ha): 0 % inhibition | Herbicidal activity, TRZAW ([23]; 0.063 kg/ha): 30 % inhibition | Herbicidal activity, TRZAW ([23]; 1.000 kg/ha): 100 % inhibition | Herbicidal activity, TRZAW ([23]; 1.250 kg/ha): 50 % inhibition | Herbicidal activity, SOLNI ([24]; 0.016 kg/ha): 0 % inhibition | Herbicidal activity, SOLNI ([24]; 0.063 kg/ha): 0 % inhibition | Herbicidal activity, SOLNI ([24]; 1.000 kg/ha): 30 % inhibition | Herbicidal activity, SOLNI ([24]; 1.250 kg/ha): 0 % inhibition | Herbicidal activity, ABUTH ([25]; 0.016 kg/ha): 0 % inhibition | Herbicidal activity, ABUTH ([25]; 0.063 kg/ha): 0 % inhibition | Herbicidal activity, ABUTH ([25]; 1.000 kg/ha): 30 % inhibition | Herbicidal activity, ABUTH ([25]; 1.250 kg/ha): 0 % inhibition | Herbicidal activity, SORBI ([26]; 0.016 kg/ha): 0 % inhibition | Herbicidal activity, SORBI ([26]; 0.063 kg/ha): 30 % inhibition | Herbicidal activity, SORBI ([26]; 1.000 kg/ha): 70 % inhibition | Herbicidal activity, SORBI ([26]; 1.250 kg/ha): 50 % inhibition
